Patent US11078188B2, “Dihydroquinoxaline bromodomain recognition protein inhibitor, preparation method and use thereof” (SHANGHAI INSTITUTE OF MATERIA MEDICA, CHINESE ACADEMY OF …, priority 2017, dated 2021)

Legend:
[1] = test system: human myeloma cells MM.1S; assay: MM.1S cell viability, CCK-8 method; format: cell-based; conditions: for IC50: 72 h treatment, CCK-8; for inhibitory activity against the MM.1S cell line (in words): compared with positive (+)-JQ1
Description: The MM.1S cell line was tested for cell viability. The test methods were as follows: human myeloma cells MM.1S were treated with compound for 72 h, and the proliferation inhibition effect and degree of the compound were detected by CCK-8 method.

[2] = Metabolic stability in human liver microsomes; format: in vitro ADME; conditions: human liver microsomes 0.5 mg/ml, 1 μM compound, NADPH
Description: The system which was 150 μl of human liver microsomes (final concentration: 0.5 mg/ml) was used for metabolic stability incubation. The system contained reduced coenzyme II (NADPH) (final concentration: 1 mM) and 1 μM compound, positive control or negative control. The reaction was terminated with acetonitrile containing (imiprozine, batch number: 3221; tinidazole, given) at 0 min, 5 min, 10 min, and 30 min, respectively. The mixture was vortexed for 10 min, centrifuged at 15000 rpm for 10 min, and 50 μl of the supernatant was injected into a 96-well plate. The metabolic stability of the compound was calculated by measuring the relative reduction in the original medicament.
(§1) HLM Clint (μl/min/mg) refers to the clearance rate of compounds in human liver microsomes having a unit of μl/min/mg; mLM Clint (μl/min/mg) refers to the clearance rate of compounds in mouse liver microsomes having a unit of μl/min/mg; HLM t1/2 (min) refers to the half-life of the compound in human liver microsomes having a unit of minutes; mLM t1/2 (min) refers to the half-life of the compound in mouse liver microsomes having a unit of minutes. TDI means that the mechanism inhibition test of compounds on CYP enzyme evaluates whether the compound has time-dependent inhibition of the enzyme.

3A4 = 3A4 (Homo sapiens (Human), UniProt P08684); assay: Direct inhibition test (DI test), CYP 3A4; format: in vitro ADME; conditions: human liver microsomes 0.2 mg/ml, 20 min; for Direct inhibition rate (%) 3A4, second value: second of two values a/b (two 3A4 probes midazolam, testosterone; assignment not given)
Description: The system which was 100 μl of human liver microsomes (final concentration: 0.2 mg/ml) was used for direct inhibition incubation. The system contained NADPH (final concentration: 1 mM), 10 μl compound, positive inhibitor cocktail (ketoconazole, 10 μl, quinidine 10 μl, sulfaphenazole 100 μl, naphthoflavone 10 μl, tranylcypromine 1000 μl), negative control 10 μl DMSO and mixed probe substrate (midazolam 10 μl, testosterone 100 μl, dextromethorphan 10 μl, diclofenac 20 μl, phenacetin 100 μl, mephenytoin 100 μl). The reaction was stopped after the system was incubated for 20 min. The relative activity of the enzyme was calculated by measuring the relative amount of production of the metabolite.

CYP enzyme = assay: Mechanistic inhibition test (TDI test); format: in vitro ADME; conditions: human liver microsomes 0.2 mg/ml; mechanism inhibition if kobs greater than 200
Description: The system which was 200 μl of human liver microsomes (final concentration: 0.2 mg/ml) was used for mechanistic inhibition incubation. The system contained 10 μl compound, mixed positive inhibitor (Troleandomycin 10 μl, Paroxetine 10 μl, Tienilic acid 10 μM, Furafylline 10 μl) or 10 μl negative control PRO. After NADPH (final concentration: 1 mM) or PBS was added, the system was incubated for 0 min, 5 min, 10 min and 30 min, then NADPH (final concentration: 1 mM) and mixed probe substrate (Midazolam 5 μM, Testosterone 50 μl, Dextromethophan 5 μM, Diclofenac 10 μl, Phenacetin 5 0 μM, S-(+)-mephenytoin 50 μl) were added and incubated for 10 min. Then the reaction was stopped. The test for positive inhibitor CYP2C19 was carried out alone, the inhibitor S-(+)-fluoxetine was 100 μM. The enzyme activity was calculated by measuring the relative production amount of metabolite. kobs was calculated.
as §1

Chain of 3A4 (P08684 whole entry): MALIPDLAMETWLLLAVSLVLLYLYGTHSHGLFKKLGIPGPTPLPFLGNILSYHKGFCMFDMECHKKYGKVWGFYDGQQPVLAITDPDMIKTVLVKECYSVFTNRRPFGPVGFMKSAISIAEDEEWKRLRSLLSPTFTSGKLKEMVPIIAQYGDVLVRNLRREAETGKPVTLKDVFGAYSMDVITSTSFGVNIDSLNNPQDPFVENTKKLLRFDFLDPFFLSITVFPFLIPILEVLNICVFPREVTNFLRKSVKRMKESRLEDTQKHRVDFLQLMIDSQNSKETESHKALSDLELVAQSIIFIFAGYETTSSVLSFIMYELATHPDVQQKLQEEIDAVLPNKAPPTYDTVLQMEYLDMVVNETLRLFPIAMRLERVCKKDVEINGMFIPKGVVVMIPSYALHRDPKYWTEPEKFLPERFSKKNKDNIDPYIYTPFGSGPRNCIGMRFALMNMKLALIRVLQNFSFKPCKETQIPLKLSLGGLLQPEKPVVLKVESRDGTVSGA

With `Cc1ccc(-n2nc(C(=O)N3CCN(C)CC3)nc2-c2ccc3c(c2)N(C2CCCC2)[C@H](C)C(=O)N3C)cc1` [Example 6] the IC50 [1] was 13.6 ± 5.45 nM, the “inhibitory activity against the MM.1S cell line (in words)” value [1] was “better inhibitory activity against the MM.1S cell line than the positive (+)-JQ1” and the “HLM Clint” value [2] was 61 µL/min/mg. The “HLM t1/2” value [2] was 23 min, the “Direct inhibition rate (%) 3A4, first value” (3A4; first of two values a/b (two 3A4 probes midazolam, testosterone; assignment not given)) was 22% and the “Direct inhibition rate (%) 3A4, second value” (3A4) was 31%. For the same compound, the TDI (CYP enzyme) was “no”.
With `Cc1ccc(-n2nc(C(=O)N3C[C@@H](C)N[C@@H](C)C3)nc2-c2ccc3c(c2)N(C2CCCC2)[C@H](C)C(=O)N3C)cc1` [Example 12] the IC50 ([1]; Homo sapiens, MM1.S) was 5.42 ± 1.14 nM, the “inhibitory activity against the MM.1S cell line (in words)” value [1] was “better inhibitory activity against the MM.1S cell line than the positive (+)-JQ1” and the microsomal CLint at 1 μM ([2]; read-out: HLM Clint) was 52 µL/min/mg. The half-life at 1 μM ([2]; read-out: HLM t1/2) was 27 min, the “Direct inhibition rate (%) 3A4, second value” (3A4) was 28% and the TDI (CYP enzyme) was “no”.
